This note sets out measurements from patent publication US20060183119A1, “Method for determining predisposition to a physiological reaction in a patient” (UNIVERSITE LAVAL, priority 2002, published 2006).

One series concerns human liver microsomes. Kind of series: SN-38 glucuronide formation by human liver microsome samples of patients. In kind it is in vitro ADME. The settings on record: N 48. From the text:
To obtain statistical data on interindividual variation of SN-38 glucuronidation, we measured the SN-38-G formation, as currently known in the background art, with microsomes preparations from each patient liver sample. The glucuronide formation rates were regrouped into ranges and every sample was categorized within these ranges.
A general note: Microsomes from liver hold many membrane-bound enzymes, among them those of drug oxidation.

A further series has as its target T1, human UGT1A9*2 (Homo sapiens, UniProt O60656, C3Y).
T1 sequence (O60656 26-530): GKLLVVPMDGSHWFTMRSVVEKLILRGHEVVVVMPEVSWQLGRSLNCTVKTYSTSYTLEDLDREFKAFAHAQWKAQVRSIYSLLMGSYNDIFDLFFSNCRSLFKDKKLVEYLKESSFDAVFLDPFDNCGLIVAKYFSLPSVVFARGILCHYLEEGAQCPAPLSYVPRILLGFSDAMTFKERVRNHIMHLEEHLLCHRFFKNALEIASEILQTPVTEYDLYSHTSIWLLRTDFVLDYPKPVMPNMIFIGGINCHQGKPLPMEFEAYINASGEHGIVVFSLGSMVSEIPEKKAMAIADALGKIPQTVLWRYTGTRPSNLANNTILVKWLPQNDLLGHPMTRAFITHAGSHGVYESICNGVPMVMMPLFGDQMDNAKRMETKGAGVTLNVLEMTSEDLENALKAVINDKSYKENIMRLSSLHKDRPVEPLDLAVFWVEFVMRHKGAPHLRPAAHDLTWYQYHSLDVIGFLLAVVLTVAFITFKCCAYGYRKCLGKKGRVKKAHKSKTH
As to the kind of experiment: Glucuronidation by microsomes of HEK-293 cells stably expressing UGT1A9*2. The settings on record: for Vmax / Km: SN-38 glucuronidation. As for the experimental part:
Microsomal fractions from HEK-293 cells stably expressing human UGT1A9*1, UGT1A9*2 and UGT1A9*3 were used in enzymatic assays. Reactions (100 μl volume) contained 50 mM Tris-HCl, pH 7.3, 10 mM MgCl2, 100 μg/mL phosphatidylcholine, 1 mM UDP-glucuronic acid, 40 to 60 μg of membrane protein. […] Human liver microsome were incubated in the same condition for control. Reaction was stopped by the addition of 200 μL MeOH+1% HCl 2N, followed by centrifugation at 14000 rpm for 10 minutes. Supernatant was filtered through a 0.22 μm filter and 100 μL of water was added. For SN-38 and SN-38-glucuronide detection, 10 μL samples were injected on a liquid chromatographic system coupled to a fluorescence detector. Time-course experiments were realized to determine the linearity of the glucuronidation reaction.
A liquid chromatographic method was developed to quantify SN-38 glucuronidation of UGT cell line-derived microsomes and human liver microsomes. Samples were analyzed using high performance liquid chromatography (Alliance 2695, Waters, Milford, Mass.). […] At a constant flow rate (0.7 ml/min), a linear gradient from 20 to 65% B was run over 3 min, held 0.8 min and a second gradient until 95% of B was run over 2 min and then re-equilibrated to 20% B over 2 min. The effluent from the HPLC system (Alliance 2695) was connected directly to a fluorescence detector (Waters, Milford, Mass.) using an excitation wavelength of […] and an emission of 460 nm. […] Determination of the glucuronidation rates obtained with other substrates was performed as currently known in the art.
Microsomal fractions from HEK293 (40 to 60 μg) were added to a reaction mixture (100 μL) containing 50 mM Tris-HCl, pH 7.3, 10 mM MgCl2, 100 μg/mL phosphatidylcholine and 2 mM UDP-glucuronic acid. […] Commercially available human liver microsomes (Human Cell Culture Center Inc., Laurel, Md.) were incubated in the same conditions for all experiments. Time-course experiments were performed to determine the linearity of the glucuronidation reaction. For the determination of Vmax and Km. HEK293 cells stably expressing UGT1A9 enzymes were incubated in the presence of various concentrations of SN-38 ranging from 0.1 to 200 μM and incubated for 30 min as described above whereas UGT1A7 membranes preparations were incubated for 3 hours. […] Reactions with SN-38 were stopped by the addition of 200 μL MeOH+1% HCl 2N, followed by centrifugation at 14000×g for 10 minutes. The supernatants were filtered through a 0.22 μm membrane and 100 μL of water was added to the filtrate. For the detection of SN-38 and its glucuronide (SN-38G), 10 μL samples were injected in a liquid chromatographic system (HPLC) coupled to fluorescence detector as described below.
A HPLC method was developed to quantify the rates of SN-38 glucuronidation from the various microsomal fractions under study. The HPLC system used was an Alliance 2695 (Waters, Milford, Mass.) equipped with a 50×3.2 mm Colombus C18 column (Phenomenex, Torrance, Calif.). […] Then a second gradient ranging from 65% to 95% solvent B was generated during the following 2 min. Finally, the column was re-equilibrated to 20% solvent B for 2 min. The column was connected to a fluorescence detector model 474 (Waters, Milford, Mass.) and the molecules were excited at a wavelength of 370 nm and an emission of 425 nm.

“And” between values parts separate entries of the source, which are not always exact repeats. Identical values can stand only once. Like-named read-outs stand apart in the source and are kept apart here.

The term Km denotes the substrate concentration at which the rate is half of its maximum. In the case of `CCc1c2c(nc3ccc(O)cc13)-c1cc3c(c(=O)n1C2)COC(=O)[C@]3(O)CC` [SN-38, 7-ethyl-10-hydroxycamptothecin], in the series on human liver microsomes, the “SN-38 glucuronide formation, glucuronidation rate, Mean” value was 0.61 pmol/mg of protein/minute and 0.6118 pmol/mg of protein/minute; the “SN-38 glucuronide formation, quantile 0.0% minimum” value is 0.1063 pmol/mg of protein/minute; the “SN-38 glucuronide formation, quantile 0.5%” value is 0.1063 pmol/mg of protein/minute; the “SN-38 glucuronide formation, quantile 2.5%” value is recorded as 0.1113 pmol/mg of protein/minute. In addition, in the series with human liver microsomes, the “SN-38 glucuronide formation, quantile 10.0%” value was 0.1641 pmol/mg of protein/minute; the “SN-38 glucuronide formation, quantile 25.0% quartile” value is 0.2763 pmol/mg of protein/minute; the “SN-38 glucuronide formation, quantile 50.0% median” value was 0.4204 pmol/mg of protein/minute; the “SN-38 glucuronide formation, quantile 75.0% quartile” value is given as 0.9279 pmol/mg of protein/minute. Moreover, in the series with human liver microsomes, the “SN-38 glucuronide formation, quantile 90.0%” value is recorded as 1.5699 pmol/mg of protein/minute; the “SN-38 glucuronide formation, quantile 97.5%” value is on record as 1.9309 pmol/mg of protein/minute; the “SN-38 glucuronide formation, quantile 99.5%” value is on record as 1.9735 pmol/mg of protein/minute; the “SN-38 glucuronide formation, quantile 100.0% maximum” value is 1.9735 pmol/mg of protein/minute. Also, the “effect on conjugation rate of SN-38 (in words)” value at human UGT1A9*2 (5 μM of SN-38, versus wild type) is given as “no significant effect”. Besides, the Vmax on human UGT1A9*2 (0.1 to 200 μM, mean±SD) is recorded as 324.38 ± 95.09 pmol/min/mg protein. Besides, at human UGT1A9*2 (Table 5), the Km stood at 5.15 ± 1.81 µM and the Vmax was 324.68 ± 95.09. For the same molecule, at human UGT1A9*2 (read-out: Apparent Km, 0.1 to 200 μM, mean±SD, Lineweaver-Burk), the Km is 5.15 ± 1.81 µM. Also, the “increased activity (SN-38 conjugation)” value at human UGT1A9*2 (tyrosine at codon 3, versus UGT1A9*1) came to 16.7%.
